Data taken from patent US5494897A, “Endothelin antagonistic peptide” (Banyu Pharmaceutical Co., Ltd., priority 1993, dated 1996).
Numbered stars: 1 amine (or outer) side, 2 acyl side, 3 side chain; on linkers, the order of the positions; unused ones are H or OH. Square brackets hold non-standard residues; d marks the D form. Peptide text beside a SMILES is read from it. X1 = N#Cc1[nH]c2ccccc2c1C[C@@H](N[*:1])C(=O)[*:2]; dPen = CC(C)(S)[C@@H](N)C(=O)O

How the values were obtained:
[1] = target: T1, ETB receptor (Sus scrofa, UniProt P35463); experiment: Endothelin binding inhibition test (125I-endothelin-1, porcine cerebellum membrane); details: 1.1 μM test compound; porcine cerebellum membrane (ETB receptors)
T1 construct: ETB receptors of porcine cerebellum membrane suspension used in the present experiments; from tissue; host or cells: porcine cerebellum membrane preparation
T1 sequence (P35463 27-443): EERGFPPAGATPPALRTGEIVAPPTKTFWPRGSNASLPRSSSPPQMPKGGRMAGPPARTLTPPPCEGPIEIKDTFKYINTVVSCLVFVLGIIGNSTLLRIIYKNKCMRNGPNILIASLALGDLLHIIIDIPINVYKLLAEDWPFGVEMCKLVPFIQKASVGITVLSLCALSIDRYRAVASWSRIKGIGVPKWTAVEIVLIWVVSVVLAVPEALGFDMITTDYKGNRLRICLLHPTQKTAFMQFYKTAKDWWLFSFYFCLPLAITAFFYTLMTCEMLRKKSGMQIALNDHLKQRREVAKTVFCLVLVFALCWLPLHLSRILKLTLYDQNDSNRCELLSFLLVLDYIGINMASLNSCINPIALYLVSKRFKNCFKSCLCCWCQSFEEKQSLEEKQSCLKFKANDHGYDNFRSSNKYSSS
Protocol: The cerebellum of porcine was homogenized in a buffer solution of 10 mM MOPS, pH 7.4, at 4° C. by a polytron. To the homogenate, sucrose was added to a concentration of 20%, and the mixture was centrifuged at 1,000×g for 15 minutes, and the supernatant was further centrifuged at 10,000×g for 15 minutes. The supernatant thereof was further centrifuged at 90,000×g for 40 minutes. The membrane precipitate thereby obtained was suspended in a buffer solution of 5 mM HEPES/Tris, pH 7.4, at a concentration of 3.3 mg/ml. Then, 16 μl of this membrane suspension was added to 340 μl of 50 mM tris/HCl buffer, pH 7.4, containing […] calcium chloride, 10 μM magnesium chloride, 0.1 mM PMSF, 1 μM pepstatin A, 2 μM leupeptin, 1 mM 1,10-phenanthroline and 0.1% bovine serum albumin. […] These mixtures were incubated at 25° C. for 4 hours, then subjected to filtration on a glass filter GF/C and then washed with 5 mM HEPES/Tris, pH 7.4, containing 0.3% bovine serum albumin. […] [formula] Each test was performed in triplicate.
The test compounds are indicated by compound Nos.

[2] = tested on: human Girardi heart cells; experiment: Inhibition of endothelin-1-induced increase in intracellular calcium concentration (fura-2); assay type: cell-based; details: for inhibition of ET-1-induced increase in intracellular calcium concentration: 1.1 μM compound given 5 minutes before 100 nM ET-1, fura-2-loaded cells; for effect on the intracellular calcium concentration itself: compound alone, fura-2-loaded human Girardi heart cells
Protocol: Inhibitory activities of test compounds against endothelin-1-induced increase in intracellular calcium concentration of human Girardi heart cells
Antagonism of test compounds to endothelin-1-induced increase in intracellular calcium concentration was evaluated in human Girardi heart cells (Dainippon Seiyaku Co., Ltd.).
Cultured human Girardi heart cells in Flask were harvested using 0.25% trypsin and 0.02% EDTA. The collected cells were washed with Dulbecco's modification eagle medium containing 20 mM Hepes and 0.3% BSA (pH 7.4, D medium). Then the cells were suspended in D medium and incubated with 2 μM of fura-2 acetoxymethyl ester at 37° C. for 30 minutes. The cell suspensions were diluted with a 10-fold volume of D medium and incubated for 20 minutes. The fura-2-loaded cells were collected by centrifugation and resuspended in Krebs-Henseleit Hepes buffer (pH 7.4). The resultant suspension in a cuvette was continuously stirred at 37° C. throughout the following measurement process. Each test compound or vehicle was given 5 minutes before the addition of 100 nM ET-1, and fluorescence intensity at emission wavelength of 510 nm and excitation wavelength of 340 and 380 nm was monitored with a JASCO CAF-100 spectrofluorometer (Japan), and [Ca^2+ ]i values were calculated according to the reported method (G. Grynkiewicz et al., J. Biol. Chem. 260, 3440-3450 (1985)).

[3] = target: T2, ETA receptors (Sus scrofa, UniProt Q29010); experiment: 125I-ET-1 binding inhibition to porcine aorta membrane suspension; details: 1.1 μM; porcine aorta membrane suspension containing a large amount of ETA receptors
T2 construct: porcine aorta membrane suspension containing a large amount of ETA receptors; from tissue; host or cells: porcine aorta membrane suspension
T2 sequence (Q29010 21-427): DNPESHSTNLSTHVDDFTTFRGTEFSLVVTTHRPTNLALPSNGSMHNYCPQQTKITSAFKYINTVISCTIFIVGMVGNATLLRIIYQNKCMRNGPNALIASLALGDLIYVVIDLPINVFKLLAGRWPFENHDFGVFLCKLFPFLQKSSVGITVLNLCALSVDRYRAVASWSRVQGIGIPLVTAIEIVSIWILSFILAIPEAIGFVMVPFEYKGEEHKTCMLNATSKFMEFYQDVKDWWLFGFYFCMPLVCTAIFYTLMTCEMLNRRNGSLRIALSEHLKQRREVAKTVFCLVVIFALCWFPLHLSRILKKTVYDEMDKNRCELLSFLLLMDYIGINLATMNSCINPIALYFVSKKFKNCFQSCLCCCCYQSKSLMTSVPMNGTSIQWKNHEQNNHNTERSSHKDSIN

`CCCC[C@@H](NC(=O)[C@@H](Cc1c(C#N)[nH]c2ccccc12)NC(=O)[C@@H](NC(=O)N1C(C)CCCC1C)C(C)C)C(=O)O` (stereo partly drawn) [Compound 1] was tested, and the inhibition at 1.1 µM [1] was 96%, the “inhibition of ET-1-induced increase in intracellular calcium concentration” value [2] was 94% and the “effect on the intracellular calcium concentration itself” value [2] was “no effect”.
`CCCC[C@@H](NC(=O)[C@@H](Cc1c(C#N)[nH]c2ccccc12)NC(=O)[C@H](CC(C)C)NC(=O)N1C(C)CCCC1C)C(=O)O` (stereo partly drawn) [Compound 2] was tested, and the inhibition at 1.1 µM [1] was 99%.
For `CCCC[C@@H](NC(=O)[C@@H](Cc1c(C#N)[nH]c2ccccc12)NC(=O)[C@H](CC(C)(C)C)NC(=O)N1C(C)CCCC1C)C(=O)OC` (stereo partly drawn) [Compound 3], the inhibition at 1.1 µM [1] was 99%.
`CCCC[C@@H](NC(=O)[C@@H](Cc1c(C#N)[nH]c2ccccc12)NC(=O)[C@H](CC(C)(C)C)NC(=O)N1C(C)CCCC1C)C(=O)O` (stereo partly drawn) [Compound 4] was tested, and the inhibition at 1.1 µM [1] was 100%.
With `CCC[C@@H](NC(=O)[C@@H](Cc1c(C#N)[nH]c2ccccc12)NC(=O)[C@@H](NC(=O)N1C(C)CCCC1C)C1CCCC1)C(=O)OC` (stereo partly drawn) [Compound 7] the inhibition at 1.1 µM [1] was 96%.
`CCC[C@@H](NC(=O)[C@@H](Cc1c(C#N)[nH]c2ccccc12)NC(=O)[C@@H](NC(=O)N1C(C)CCCC1C)C1CCCC1)C(=O)O` (stereo partly drawn) [Compound 8] showed an inhibition at 1.1 µM [1] of 96%.
Compound `CCC[C@@H](NC(=O)[C@@H](Cc1c(C#N)[nH]c2ccccc12)NC(=O)[C@@H](NC(=O)N1C(C)CCCC1C)C1CCCC1)C(=O)NC` (stereo partly drawn) [Compound 9] has an inhibition at 1.1 µM [1] of 100%.
`COC(=O)C[C@H]1NC(=O)[C@@H](Cc2c(C#N)[nH]c3ccccc23)NC(=O)[C@H](CC(C)C)NC(=O)[C@@H](C(C)(C)SC)NC(=O)[C@@H]2CCCN2C1=O` [Compound 10] (cyclo(L[X1][dD](OMe)P[dPen](Me))) showed an inhibition at 1.1 µM [1] of 65%.
In the case of `CSC(C)(C)[C@H]1NC(=O)[C@@H]2CCCN2C(=O)[C@@H](CC(=O)O)NC(=O)[C@@H](Cc2c(C#N)[nH]c3ccccc23)NC(=O)[C@H](CC(C)C)NC1=O` [Compound 11] (cyclo(L[X1][dD]P[dPen](Me))), the inhibition at 1.1 µM [1] is reported as 97%, the “inhibition of ET-1-induced increase in intracellular calcium concentration” value [2] is reported as 69% and the “effect on the intracellular calcium concentration itself” value [2] is reported as “no effect”.
For `CC(C)C[C@@H]1NC(=O)[C@@H](C(C)C)NC(=O)[C@@H]2CCCN2C(=O)[C@@H](CC(=O)O)NC(=O)[C@@H](Cc2c(C#N)[nH]c3ccccc23)NC1=O` [Compound 12] (cyclo(L[X1][dD]P[dV])), the inhibition at 1.1 µM [1] was 78%.
Compound “cyclo(-DTrp-DAsp-Pro-DThg-Leu-) [compound 6, reference compound]” has a 125I-endothelin-1 binding inhibition [1] of 11% and a 125I-ET-1 binding inhibition [3] of 82%.
“cyclo(-DTrp-DCys(O3 Na)-Pro-DVal-Leu-) [compound 5, reference compound]” showed a 125I-endothelin-1 binding inhibition [1] of 0.6% and a 125I-ET-1 binding inhibition [3] of 85%.
